Results on 50 compounds are retold here after patent US12157732B2, “eIF4E inhibitors and uses thereof” (PIC Therapeutics, Inc., priority 2021, dated 2024).

Where only a bound is given, the exact number is not on record here.

The test deals with T1, Human eIF4E (aa 28-217) / biotin labeled 4G2 peptide (Homo sapiens, UniProt P06730).
T1 construct: Human eIF4E (aa 28-217) with a C-terminal His-tag; made in house
T1 sequence (P06730 28-217): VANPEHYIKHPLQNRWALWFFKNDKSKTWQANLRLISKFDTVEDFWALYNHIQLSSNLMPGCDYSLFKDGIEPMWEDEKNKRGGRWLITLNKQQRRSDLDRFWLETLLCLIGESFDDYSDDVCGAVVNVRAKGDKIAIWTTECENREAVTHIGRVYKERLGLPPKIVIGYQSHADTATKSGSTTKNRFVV
In words: Human eIF4E/4G2 binding assay (TR-FRET). To be noted: TR-FRET eIF4E/4G2 peptide binding; 4 hours preincubation with eIF4E at room temperature. Here is the method: Example 3. Compound Testing in Human eIF4E/4G2 Binding Assay
Human eIF4E (aa 28-217) with a C-terminal His-tag was expressed in E. coli in inclusion bodies. The protein was solubilized with 8 M urea and purified under denaturing conditions using nickel-charged HisTrap HP columns (GE Healthcare). The purified protein was then refolded by diluting in 20 mM Hepes pH 7.0, 0.5 M NaCl, 1 mM DTT, 1 mM EDTA, 0.5 M arginine plus 6 M urea, and then dialyzing overnight into the same buffer without the urea. The protein was further dialyzed into 20 mM Hepes, pH 6.5, 50 mM NaCl, 1 mM EDTA, 1 mM DTT, and concentrated using Hitrap SP sepharose FF columns (GE Healthcare). The concentrated protein was dialyzed into 20 mM Hepes, pH 7.0, 0.5M NaCl, 5 mM DTT and 10% glycerol, and stored at −80° C. until use.
Test compounds (3.43 mM stock in DMSO) were diluted 2-fold in series in DMSO (10 concentration points). Compound solutions (1.2 μl/well) were added into black 384-well polypropylene microplates (Matrix, Thermal Scientific). Twenty-two microliters per well of Assay Buffer (50 mM NaPi, pH 6.5, 50 mM KCl, 1 mM DTT and 0.5 mg/ml gamma globulin) and eight microliters per well of 82.5 nM purified eIF4E in Assay Buffer were added. The samples were incubated at room temperature (20-23° C.) for 4 hours. Biotin labeled 4G2 peptide (Ac-Lys-Gln-Tyr-Asp-Arg-Glu-Phe-Leu-Leu-Asp-Phe-Gln-Phe-Met-Pro-Lys(Aha-Bio)-NH2, 1.75 μM stock in DMSO) was diluted to 0.14 μM in Assay Buffer (without DTT) and 5 μl/well was added. The samples were incubated at room temperature for 20 min. Five microliters per well of 6.4 nM Eu-streptavidin (Eu-SA, Perkin Elmer) and 80 nM Allophycocyanin (APC)-anti His antibody (Columbia Biosciences) in Assay Buffer (without DTT) were then added and the samples were incubated at room temperature for 20 min.
Assay signals were monitored by reading excitation at 340 nm and emission fluorescence at 615 nm and 665 nm on an Envision reader (Perkin Elmer). Normalized TR-FRET (time-resolved fluorescence resonance energy transfer) assay signal (Rn) was calculated by the formula: Rn=[(A−Ba−C×D)/(D−Bd)]×(Dc−Bd) Where A is the fluorescence intensity of the sample at 665 nm, D is the fluorescence intensity of the sample at 615 nm, Ba and Bd are plate backgrounds at 665 nm and 615 nm, respectively, Dc is the fluorescence intensity of 0.78 nM Eu-SA in the assay buffer at 615 nm The cross-talk factor (C) is determined by the following formula: C=(Ac−Ba)/(Dc−Bd) Where Ac is the fluorescence intensity of 0.78 nM Eu-SA in the assay buffer at 665 nm.
IC50 values were calculated using xLFit program (IDBS). Table 3 below lists IC50 of some compounds, wherein A represents IC50<0.5 μM; B represents 500 nM<IC50<1 μM; and C represents IC50>1 μM.
(TR-FRET usually uses a lanthanide donor and a delayed reading to cut background.)
Take `CC(C)c1nc(Nc2ncc(C(F)(F)F)cc2C(=O)O)sc1-c1ccc(Cl)c(Cl)c1` [I-1, 2-(5-(3,4-Dichlorophenyl)-4-Isopropylthiazol-2-Ylamino)-5-(trifluoromethyl)nicotinic acid]: the IC50 (commonly the point on the concentration scale where inhibition reaches its midpoint) is less than 500 nM. For the compound `CC(C)c1nc(Nc2ncc(-c3cccs3)cc2C(=O)O)sc1-c1ccc(Cl)c(Cl)c1` [I-2, 2-(5-(3,4-Dichlorophenyl)-4-Isopropylthiazol-2-Ylamino)-5-(Thiophen-2-yl)nicotinic acid], the IC50 was less than 500 nM. Compound `CC(C)CCc1nc(Nc2ncc(-c3cccs3)cc2C(=O)O)sc1-c1ccc(Cl)c(Cl)c1` [I-3] gave an IC50 of less than 500 nM. `CC(C)CCc1nc(Nc2ncc(C(F)(F)F)cc2C(=O)O)sc1-c1ccc(Cl)c(Cl)c1` [I-4] displayed an IC50 of less than 500 nM.

`CC(C)CCc1nc(Nc2ccsc2C(=O)O)sc1-c1ccc(Cl)c(Cl)c1` [I-5] registered an IC50 of less than 500 nM.

Regarding `CC(C)CCc1nc(Nc2cc(-c3ccccc3)sc2C(=O)O)sc1-c1ccc(Cl)c(Cl)c1` [I-6], the concentration for half-maximal inhibition (IC50) was less than 500 nM. Then `CC(C)CCc1nc(Nc2ncccc2C(=O)O)sc1-c1ccc(Cl)c(Cl)c1` [I-7], with less than 500 nM. For `CC(C)CCc1nc(Nc2ncc(-c3cccs3)cc2C(=O)O)sc1-c1ccccc1` [I-8], the IC50 is less than 500 nM. `CC(C)CCc1nc(Nc2ncc(-c3cccs3)cc2C(=O)O)sc1-c1ccc(S(C)(=O)=O)cc1` [I-9] gave an IC50 of 500 to 1000 nM. On to `CC(C)CCc1nc(Nc2ncc(C(F)(F)F)cc2C(=O)O)sc1-c1ccc(S(C)(=O)=O)cc1` [I-10], for which the IC50 fell in the range of 500 to 1000 nM. As to `CC(C)CCc1nc(Nc2cc(C3CCCC3)sc2C(=O)O)sc1-c1ccc(Cl)c(Cl)c1` [I-11], the IC50 was less than 500 nM. `CC(C)CCc1nc(Nc2cc(C3CCCC3)sc2C(=O)O)sc1-c1ccc(Oc2ccccc2)cc1` [I-12] gave a concentration for half-maximal inhibition (IC50) of less than 500 nM. Compound `CC(C)CCc1nc(Nc2cc(C3CCCC3)sc2C(=O)O)sc1-c1ccc(-n2ccccc2=O)cc1` [I-13] had an IC50 of less than 500 nM. On to `CC(C)CCc1nc(Nc2ncc(-c3cccs3)cc2C(=O)O)sc1-c1ccc(Oc2ccccc2)cc1` [I-14], for which the IC50 was less than 500 nM. As for `CC(C)CCc1nc(Nc2ncc(C(F)(F)F)cc2C(=O)O)sc1-c1ccc(-c2ccccn2)cc1` [I-15], the IC50 was less than 500 nM. Take `CC(C)CCc1nc(Nc2ncc(C(F)(F)F)cc2C(=O)O)sc1-c1ccc(N2CCOCC2)cc1` [I-16, 2-(4-Isopentyl-5-(4-Morpholinophenyl)Thiazol-2-Ylamino)-5-(trifluoromethyl)nicotinic acid]: the IC50 was more than 1000 nM. In turn, `CC(C)CCc1nc(Nc2ncc(-c3cccs3)cc2C(=O)O)sc1-c1ccc(OC(F)(F)F)cc1` [I-17] came in with an IC50 of less than 500 nM. In turn, `CC(C)CCc1nc(Nc2cc(C3CCCC3)sc2C(=O)O)sc1-c1ccc(OC(F)(F)F)cc1` [I-18] returned an IC50 of less than 500 nM. The figure for `CC(C)c1nc(Nc2ncc(C(F)(F)F)cc2C(=O)O)sc1-c1ccc2ccccc2c1` [I-19] is 500 to 1000 nM; for `CC(C)c1nc(Nc2ncc(C(F)(F)F)cc2C(=O)O)sc1-c1cccc2ccccc12` [I-20] it is 500 to 1000 nM. In the case of `CC(C)c1nc(Nc2ncc(C(F)(F)F)cc2C(=O)O)sc1-c1cccs1` [I-21], the concentration for half-maximal inhibition (IC50) lay in the range of 500 to 1000 nM. Consider `CC(C)c1nc(Nc2ncc(C(F)(F)F)cc2C(=O)O)sc1-c1ccsc1` [I-22], for which the IC50 lay in the range of 500 to 1000 nM. The figure for `CC(C)c1nc(Nc2ncc(C(F)(F)F)cc2C(=O)O)sc1C1=CCCCC1` [I-23] is 500 to 1000 nM. In turn, `CC(C)c1nc(Nc2ncc(C(F)(F)F)cc2C(=O)O)sc1-c1ccc(-c2cccs2)cc1` [I-24, 2-(4-Isopropyl-5-(4-(Thiophen-2-Yl)Phenyl)Thiazol-2-Ylamino)-5-(trifluoromethyl)nicotinic acid] registered an IC50 of less than 500 nM.

On to `CC(C)c1nc(Nc2ncc(C(F)(F)F)cc2C(=O)O)sc1-c1ccc(C(F)(F)F)cc1` [I-25], for which the IC50 is 500 to 1000 nM. `CC(C)c1nc(Nc2ncc(-c3ccccc3)cc2C(=O)O)sc1C1=CCCCC1` [I-27, 2-(5-cyclohexenyl-4-isopropylthiazol-2-ylamino)-5-phenylnicotinic acid] returned an IC50 of 500 to 1000 nM. Then `CC(C)Cc1nc(Nc2ncc(C(F)(F)F)cc2C(=O)O)sc1-c1ccc2ccccc2c1` [I-30], with less than 500 nM. Then `CC(C)c1nc(Nc2ncc(C(F)(F)F)cc2C(=O)O)sc1-c1ccc(Cl)cc1Cl` [I-31, 2-(5-(2,4-dichlorophenyl)-4-isopropylthiazol-2-ylamino)-5-(trifluoromethyl)nicotinic acid], with 500 to 1000 nM; and `CC(C)c1nc(Nc2ncc(C(F)(F)F)cc2C(=O)O)sc1-c1csc2ccccc12` [I-32, 2-(5-(benzo[b]thiophen-3-yl)-4-isopropylthiazol-2-ylamino)-5-(trifluoromethyl)nicotinic acid], with 500 to 1000 nM.

In the case of `CC(C)c1nc(Nc2ncc(C(F)(F)F)cc2C(=O)O)sc1-c1ccc(C(F)(F)F)cc1Cl` [I-33], the IC50 lay in the range of 500 to 1000 nM. In turn, `CC(C)c1ccc(-c2sc(Nc3ncc(C(F)(F)F)cc3C(=O)O)nc2C(C)C)cc1` [I-34] showed an IC50 of 500 to 1000 nM.

As for `CC(C)c1nc(Nc2ncc(C(F)(F)F)cc2C(=O)O)sc1-c1ccc(C(C)(C)C)cc1` [I-35], the IC50 is less than 500 nM. Then `CC(C)c1nc(Nc2ncc(C(F)(F)F)cc2C(=O)O)sc1-c1ccc(F)cc1F` [I-36], with 500 to 1000 nM.

`CC(C)c1nc(Nc2ncc(C(F)(F)F)cc2C(=O)O)sc1-c1ccc(Cl)cc1F` [I-37, 2-(5-(4-chloro-2-fluorophenyl)-4-isopropylthiazol-2-ylamino)-5-(trifluoromethyl)nicotinic acid]: the IC50 lay in the range of 500 to 1000 nM.

`CC(C)c1nc(Nc2ncc(C(F)(F)F)cc2C(=O)O)sc1-c1ccc(-c2ccccc2)cc1` [I-38] showed an IC50 of less than 500 nM. The figure for `CC(C)c1nc(Nc2ncc(C(F)(F)F)cc2C(=O)O)sc1-c1ccc(C(F)(F)F)c(F)c1` [I-39] is less than 500 nM; for `COc1cc(Cl)ccc1-c1sc(Nc2ncc(C(F)(F)F)cc2C(=O)O)nc1C(C)C` [I-40] it is 500 to 1000 nM. As for `COc1ccc(-c2sc(Nc3ncc(C(F)(F)F)cc3C(=O)O)nc2C(C)C)cc1` [I-41], the IC50 lay in the range of 500 to 1000 nM. In turn, `COc1ccc(-c2sc(Nc3ncc(C(F)(F)F)cc3C(=O)O)nc2C(C)C)cc1OC` [I-42] came in with an IC50 of more than 1000 nM. `COc1ccc(-c2sc(Nc3ncc(C(F)(F)F)cc3C(=O)O)nc2C(C)C)cc1F` [I-43] gave an IC50 of 500 to 1000 nM. Compound `CC(C)c1nc(Nc2ncc(C(F)(F)F)cc2C(=O)O)sc1-c1ccc(OC(F)F)cc1` [I-44] came in with an IC50 of 500 to 1000 nM. Then `CC(C)c1nc(Nc2ncc(C(F)(F)F)cc2C(=O)O)sc1-c1ccc(OCc2ccccc2)cc1` [I-45], with less than 500 nM; and `CC(C)c1nc(Nc2ncc(C(F)(F)F)cc2C(=O)O)sc1-c1ccccn1` [I-46, 2-(4-isopropyl-5-(pyridin-2-yl)thiazol-2-ylamino)-5-(trifluoromethyl)nicotinic acid], with more than 1000 nM; and `COc1ccc(-c2sc(Nc3ncc(C(F)(F)F)cc3C(=O)O)nc2C(C)C)c(OC)c1` [I-47], with more than 1000 nM. Then `CC(C)c1nc(Nc2ncc(C(F)(F)F)cc2C(=O)O)sc1-c1ccc(Cl)s1` [I-48], with 500 to 1000 nM; and `CC(C)c1nc(Nc2ncc(C(F)(F)F)cc2C(=O)O)sc1-c1ccc(-c2ccccc2)s1` [I-49], with less than 500 nM. `COc1ccc(-c2sc(Nc3ncc(-c4cccs4)cc3C(=O)O)nc2C(C)C)cc1Cl` [I-50] showed an IC50 of 500 to 1000 nM. Consider `COc1ccc(-c2sc(Nc3ncc(C(F)(F)F)cc3C(=O)O)nc2C(C)C)cc1Cl` [I-51], for which the IC50 fell in the range of 500 to 1000 nM. Regarding `COc1ccc(-c2sc(Nc3ncc(-c4cccs4)cc3C(=O)O)nc2C2CC2)cc1Cl` [I-52, 2-((5-(3-chloro-4-methoxyphenyl)-4-cyclopropylthiazol-2-yl)amino)-5-(thiophen-2-yl)nicotinic acid], the half-inhibitory concentration (IC50) was less than 500 nM.

As to `COc1ccc(-c2sc(Nc3ncc(-c4cccs4)cc3C(=O)O)nc2C)cc1Cl` [I-53], the IC50 was in the range of 500 to 1000 nM.
